Assay results published in patent US10538486B2, “Hydroxamic acid type contrast agent containing radioisotope fluoride, preparation method and application thereof” (Institute of Nuclear Energy Research, Atomic Energy …, priority 2017, dated 2020).

Legend:
Format in all cases: biochemical
Conditions in all cases: 4 concentrations in DMSO, 30 min at room temperature, fluorescence 355/460 nm, FIG. 5
HDAC6 = molecular target: T1, HDAC6 (Homo sapiens, UniProt Q9UBN7); assay: HDAC Fluorometric Assay Kit enzyme activity assay, HDAC6
T1 construct: purchased Enzolifesciences
T1 sequence (Q9UBN7 1-1215): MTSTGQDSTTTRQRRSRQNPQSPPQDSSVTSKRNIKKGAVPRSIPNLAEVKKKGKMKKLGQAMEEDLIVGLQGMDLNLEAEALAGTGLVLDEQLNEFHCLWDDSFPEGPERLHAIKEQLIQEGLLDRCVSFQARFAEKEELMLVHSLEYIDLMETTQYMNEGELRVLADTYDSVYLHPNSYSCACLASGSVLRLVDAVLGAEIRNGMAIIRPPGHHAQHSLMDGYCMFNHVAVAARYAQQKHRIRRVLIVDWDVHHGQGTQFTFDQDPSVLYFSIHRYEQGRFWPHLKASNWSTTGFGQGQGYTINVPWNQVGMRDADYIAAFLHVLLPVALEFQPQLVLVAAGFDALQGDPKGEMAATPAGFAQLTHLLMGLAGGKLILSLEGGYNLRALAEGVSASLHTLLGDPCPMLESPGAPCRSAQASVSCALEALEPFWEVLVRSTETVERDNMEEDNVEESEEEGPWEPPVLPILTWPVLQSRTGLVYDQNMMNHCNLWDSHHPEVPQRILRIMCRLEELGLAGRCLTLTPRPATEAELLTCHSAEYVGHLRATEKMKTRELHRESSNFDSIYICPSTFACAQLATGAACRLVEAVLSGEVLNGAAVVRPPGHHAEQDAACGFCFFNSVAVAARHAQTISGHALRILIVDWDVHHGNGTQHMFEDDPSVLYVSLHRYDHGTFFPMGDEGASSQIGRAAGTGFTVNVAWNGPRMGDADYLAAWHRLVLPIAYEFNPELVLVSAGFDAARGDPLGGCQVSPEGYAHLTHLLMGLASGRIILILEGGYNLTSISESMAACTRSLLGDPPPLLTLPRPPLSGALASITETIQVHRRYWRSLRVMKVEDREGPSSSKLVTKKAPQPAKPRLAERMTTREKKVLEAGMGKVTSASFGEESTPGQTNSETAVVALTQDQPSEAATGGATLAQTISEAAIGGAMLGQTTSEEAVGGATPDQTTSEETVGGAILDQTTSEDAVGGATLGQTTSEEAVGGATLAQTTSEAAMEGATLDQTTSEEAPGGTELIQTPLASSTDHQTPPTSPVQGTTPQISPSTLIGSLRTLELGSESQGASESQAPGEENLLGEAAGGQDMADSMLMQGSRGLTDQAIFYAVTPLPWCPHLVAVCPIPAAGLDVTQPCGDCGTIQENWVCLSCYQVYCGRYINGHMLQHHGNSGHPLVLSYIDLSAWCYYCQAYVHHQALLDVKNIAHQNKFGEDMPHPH
Protocol: (§1) To further investigate whether the fluorine-18-hydroxamic acid-based compound is useful as a HDAC inhibitor, the inhibitory effect on HDAC is assayed with the fluorine-19-hydroxamic acid-based compound. The fluorine-18-hydroxamic acid-based compound and the fluorine-19-hydroxamic acid-based compound have the same chemical properties, except that the fluorine-18-hydroxamic acid-based compound has radioactivity, and the fluorine-19-hydroxamic acid-based compound has no radioactivity.
(§2) The fluorine-19-hydroxamic acid-based compound was diluted in dimethyl sulfoxide (DMSO) to give 4 different concentrations. The enzyme activity of various subtypes of HDAC was assayed with a HDAC Fluorometric Assay Kit (available from Enzolifesciences). The fluorine-19-hydroxamic acid-based compound (10 μL) and enzyme (15 μL) were added to a white opaque 96-well plate, and then a substrate (25 μL) was added and incubated for 30 min at room temperature. After incubation, the fluorescence intensity of the 96-well plate was measured on a microplate reader at an excitation wavelength of 355 nm and an emission wavelength of 460 nm, and the fluorescence intensity measured was analyzed by Graph Pad Prism 6 to calculate IC50 (as shown in FIG. 5).

HDAC8 = molecular target: T2, HDAC8 (Homo sapiens, UniProt Q9BY41); assay: HDAC Fluorometric Assay Kit enzyme activity assay, HDAC8
T2 construct: purchased Enzolifesciences
T2 sequence (Q9BY41 1-377): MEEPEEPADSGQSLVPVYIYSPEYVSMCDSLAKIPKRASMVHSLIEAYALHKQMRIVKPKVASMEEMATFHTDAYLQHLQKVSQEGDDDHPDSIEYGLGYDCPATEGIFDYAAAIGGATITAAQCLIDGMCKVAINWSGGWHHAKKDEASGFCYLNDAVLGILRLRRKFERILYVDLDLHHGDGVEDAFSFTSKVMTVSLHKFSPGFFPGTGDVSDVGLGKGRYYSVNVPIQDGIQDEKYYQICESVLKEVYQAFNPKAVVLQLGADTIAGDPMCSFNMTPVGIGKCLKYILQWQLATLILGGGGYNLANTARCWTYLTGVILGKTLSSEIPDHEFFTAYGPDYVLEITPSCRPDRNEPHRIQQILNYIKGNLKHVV
Protocol: as §1, §2

HDAC3 = molecular target: T3, HDAC3 (Homo sapiens, UniProt O15379); assay: HDAC Fluorometric Assay Kit enzyme activity assay, HDAC3
T3 construct: purchased Enzolifesciences
T3 sequence (O15379 whole entry, species assumed): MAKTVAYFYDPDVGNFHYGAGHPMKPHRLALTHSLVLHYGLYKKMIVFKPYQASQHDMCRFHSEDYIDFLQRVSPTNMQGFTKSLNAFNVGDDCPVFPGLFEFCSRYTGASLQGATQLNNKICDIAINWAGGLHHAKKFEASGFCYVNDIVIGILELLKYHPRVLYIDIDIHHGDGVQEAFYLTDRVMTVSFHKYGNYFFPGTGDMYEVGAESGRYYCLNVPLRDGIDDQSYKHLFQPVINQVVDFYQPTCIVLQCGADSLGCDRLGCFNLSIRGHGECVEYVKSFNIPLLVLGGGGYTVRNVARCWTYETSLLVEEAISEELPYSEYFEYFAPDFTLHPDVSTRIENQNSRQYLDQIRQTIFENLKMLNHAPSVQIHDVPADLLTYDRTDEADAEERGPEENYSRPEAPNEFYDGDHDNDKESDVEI
T3 sequence (O75376 395-489 partner limits assumed, species assumed): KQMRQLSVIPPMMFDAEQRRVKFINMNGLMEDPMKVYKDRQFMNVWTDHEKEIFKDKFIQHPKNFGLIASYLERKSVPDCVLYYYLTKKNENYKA
Protocol: as §1, §2

Cc1cc(F)ccc1OCCCC(=O)NO
selectively inhibited: IC50, inhibitory effect on HDAC6 (HDAC6) | IC50, inhibitory effect on HDAC8 (HDAC8) | IC50, inhibitory effect on HDAC3 (HDAC3)
